The source of these data is article PMC12472302, “Discovery of a Promising Hydroxyamino-Piperidine HDAC6 Inhibitor via Integrated Virtual Screening and Experimental Validation in Multiple Myeloma” (Pharmaceuticals, 2025).

In general, IC50 refers to the concentration needed to halve the response being measured.

Data set [1] concerns HDAC6. The note with it: cited from earlier work.
Data set [2] relates to HDAC6. Conditions: cited from earlier work. The source holds these as a separate data set.
The target in data set [3] is T1, HDAC6 human recombinant enzyme (Homo sapiens, UniProt Q9UBN7).
T1 sequence (Q9UBN7 1-1215): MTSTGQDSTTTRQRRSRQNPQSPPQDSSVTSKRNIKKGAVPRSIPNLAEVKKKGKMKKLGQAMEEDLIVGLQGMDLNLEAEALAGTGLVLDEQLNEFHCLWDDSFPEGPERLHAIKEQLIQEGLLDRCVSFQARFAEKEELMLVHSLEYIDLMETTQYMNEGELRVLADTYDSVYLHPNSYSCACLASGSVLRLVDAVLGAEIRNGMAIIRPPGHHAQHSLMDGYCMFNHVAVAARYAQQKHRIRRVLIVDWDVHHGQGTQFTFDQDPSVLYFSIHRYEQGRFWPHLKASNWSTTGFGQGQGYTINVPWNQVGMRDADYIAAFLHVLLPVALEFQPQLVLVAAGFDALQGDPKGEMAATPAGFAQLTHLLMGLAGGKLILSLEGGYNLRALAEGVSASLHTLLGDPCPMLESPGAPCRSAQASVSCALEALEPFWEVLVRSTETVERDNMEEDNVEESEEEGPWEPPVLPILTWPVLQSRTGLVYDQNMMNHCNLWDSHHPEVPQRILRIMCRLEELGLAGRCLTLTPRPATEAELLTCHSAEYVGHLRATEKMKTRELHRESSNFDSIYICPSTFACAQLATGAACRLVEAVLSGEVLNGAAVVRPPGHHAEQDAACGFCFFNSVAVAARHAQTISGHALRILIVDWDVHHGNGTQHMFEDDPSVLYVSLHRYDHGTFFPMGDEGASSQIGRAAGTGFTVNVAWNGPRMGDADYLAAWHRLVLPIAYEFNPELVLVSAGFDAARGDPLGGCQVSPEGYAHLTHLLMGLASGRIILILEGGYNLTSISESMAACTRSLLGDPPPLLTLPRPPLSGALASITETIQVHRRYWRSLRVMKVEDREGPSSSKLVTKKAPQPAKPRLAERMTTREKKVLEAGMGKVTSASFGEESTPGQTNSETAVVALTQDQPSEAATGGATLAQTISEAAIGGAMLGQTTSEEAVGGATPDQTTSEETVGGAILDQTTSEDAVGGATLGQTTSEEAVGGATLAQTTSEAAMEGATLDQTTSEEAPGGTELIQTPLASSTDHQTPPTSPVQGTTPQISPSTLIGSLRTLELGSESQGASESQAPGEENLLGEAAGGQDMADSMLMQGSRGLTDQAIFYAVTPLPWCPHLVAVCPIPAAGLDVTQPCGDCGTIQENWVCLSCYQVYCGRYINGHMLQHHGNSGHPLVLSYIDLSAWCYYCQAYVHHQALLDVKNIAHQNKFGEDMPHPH
The data set is described as follows: Fluorogenic HDAC6 inhibition assay (BPS Bioscience kit). The data set is classed as biochemical. Conditions: mean ± SD, three independent experiments.

Data set [4] concerns AMO cells. Put plainly: CellTiter-Glo cell viability, AMO. In kind it is cell-based. The note with it: Homo sapiens, 72 h, mean ± SD. How it is done:
(§1) The MM cell lines used in this study were: AMO, AMO-BZB, NCI-H929 and NCI-H929-BZB. AMO and AMO-BZB cells were provided by Dr. C. Driessen (University of Tubingen, Tübingen, Germany). The NCI-H929 cell line was purchased from DSMZ (Braunschweig, Germany). Bortezomib (BZB)-resistant NCI-H929 cells were selected by incubation with increasing concentrations of the drug. Human MM cell lines were cultured in RPMI-1640 medium (Corning, Turin, Italy) supplemented with 10% of heat-inactivated fetal bovine serum (FBS) (Gibco®, Life Technologies, Carlsbad, CA, USA), 100 U/mL of Penicillin and 100 µg/mL of Streptomycin (P/S) (Gibco®, Life Technologies, Carlsbad, CA, USA) and incubated at 37 °C in a 5% CO2 atmosphere. Peripheral blood mononuclear cells (PBMCs) were isolated by Ficoll-hypaque (Lonza Group, Basel, Switzerland) from healthy donors, following informed consent and Institutional Review Board (University of Catanzaro, Catanzaro, Italy) approval (institutional approval: n.266/2021). […]
(§2) Cell viability was assessed using the CellTiter-Glo (CTG) assay kit (Promega, Madison, WI, USA), as reported. […] Luminescence was measured using the GloMax-Multi Detection System (Promega, Madison, WI, USA).

The subject of data set [5] is AMO-BZB cells. Put plainly: CellTiter-Glo cell viability, AMO-BZB. The data set is classed as cell-based. Conditions: Homo sapiens; AMO-BZB (bortezomib-resistant), 72 h, mean ± SD. How it is done:
as §1, §2
Background: Cellular ATP, detected with luciferase, serves as a proxy for viable cell number.

Data set [6] deals with H929 cells. Put plainly: CellTiter-Glo cell viability, H929. Conditions: Homo sapiens, NCI-H929; H929, 72 h, mean ± SD. In kind it is cell-based. How it is done: as §1, §2
Data set [7] deals with H929-BZB cells. The data set is described as follows: CellTiter-Glo cell viability, H929-BZB. In kind it is cell-based. Conditions: Homo sapiens; H929-BZB (bortezomib-resistant), 72 h, mean ± SD. How it is done: as §1, §2
Data set [8] has as its system 293T cells. Put plainly: CellTiter-Glo cell viability, 293T. In kind it is cell-based. The note with it: 72 h.
Data set [9] concerns healthy peripheral blood mononuclear cells (PBMCs). Put plainly: CellTiter-Glo cell viability, healthy PBMCs. The note with it: 72 h. In kind it is cell-based. As for the experimental part: as §1, §2
Data set [10] has as its system acetylated α-tubulin. The data set is described as follows: Western blot of acetylated α-tubulin in MM cell lines. The data set is classed as cell-based, human. The note with it: AMO and AMO-BZB. How it is done:
(§3) Total protein extracts were prepared using NP-40 Cell Lysis Buffer supplemented with Halt™ Protease Inhibitor Cocktail (Thermo Fisher Scientific, Waltham, MA, USA), as reported.
(§4) Protein samples (30 µg per lane) were resolved on 10% SDS-PAGE gels and subsequently transferred onto nitrocellulose membranes using the Trans-Blot Turbo Transfer System (Bio-Rad Laboratories, Hercules, CA, USA). Membranes were then blocked and incubated with the following primary antibodies: acetylated-α Tubulin (#sc-23950; Santa Cruz Biotechnology, Dallas, TX, USA), acetylated-histone H4 (#sc-34263; Santa Cruz Biotechnology) or histone H4 (#AB5823; abcam). GAPDH (MA5-15738; Thermo Fisher Scientific, Waltham, MA, USA) was used as loading control. Protein bands were visualized using the Clarity Western ECL Substrate (Bio-Rad Laboratories, Hercules, CA, USA), and chemiluminescence signals were quantified using the UVITEC Imaging System (Cleaver Scientific, Warwickshire, UK).
A general note: Immunoblotting shows a protein as a band on a membrane.

For data set [11], the system named is histone H4 acetylation. Put plainly: Western blot of acetylated histone H4 in AMO cells. The data set is classed as cell-based, human. Conditions: 72 h. How it is done: as §3, §4
The mark [12] stands for this setting: Table S1, ref DOI 10.1039/D2RA01753A.

Where two headings read alike, the source gives them in different places.

Consider `O=C(NO)c1ccc(Cn2c(=O)n(CCc3ccccc3)c(=O)c3ccccc32)cc1`, for which, in [1], the IC50 is 4 nM.

Consider `O=C(CCCCCCC[C@H]1C(=O)[C@H]2CCC(=O)N2Cc2ccccc21)NO`, for which the IC50 in [1] is 21.4 nM.

For the compound `O=C(CCCCCCNC(=O)c1cnc(N(c2ccccc2)c2ccccc2Cl)nc1)NO` [ACY-241], the selectivity ratio in [2] was approximately 10.

Regarding `O=C(CCCCCNC(=O)c1cn(C2CCN(S(=O)(=O)c3ccc4ccccc4c3)CC2)nn1)NO`, the IC50 in data set [1] is 8.6 nM.

In the case of `O=C(NO)c1ccc(CN2c3ccccc3Sc3cccnc32)cc1`, in data set [1] (Table S1, ref PMID 30645113), the IC50 is 5 nM.

Turning to `COc1ccc(C(=O)NC2CCN(C(=O)Nc3ccc(/C=C/C(=O)NO)cc3)CC2)cc1`, the IC50 in data set [1] was 12.3 nM.

Regarding `COc1ccc(-c2ncc(C(=O)NCCCCCC(=O)NO)s2)c(OC)c1`, in [1], the IC50 was 31 nM.

`CCN(CC)Cc1ccc(Cn2c(=O)c(OCc3ccc(C(=O)NO)cc3)c(-c3ccccc3)c3ccccc32)cc1`: the IC50 in data set [1] (Table S1, ref PMID 33199154) was 6.9 nM.

Consider `O=C(NO)c1ccc(CN(Cc2nnnn2Cc2ccccc2)C(=O)c2ccccc2C(F)(F)F)cc1`, for which the half-maximal inhibitory concentration (IC50) in data set [1] (Table S1, ref PMID 32803970) is 30 nM.

For `COC(=O)c1ccc2ccccc2c1OCCCCCCCC(=O)NO` [ONC(=O)CCCCCCCOc1c(C(=O)OC)ccc(c12)cccc2], the IC50 in [1] (Table S1, ref PMID 31223439) is 95 nM.

For the compound `O=C(NO)c1ccc(N2C(=O)/C(=C3\Nc4ccccc4\C3=N/O)c3ccccc32)cc1`, the IC50 in data set [1] (Table S1, ref PMID 32916298) is 7 nM.

As for `O=C(CCC=C1CCN(C(=O)OCc2ccccc2)CC1)NO` [Compound 10, benzyl 4-[4-(hydroxyamino)-4-oxobutylidene]piperidine-1-carboxylate], the IC50 in data set [3] was 1690 ± 420 nM; in data set [4], 13200 nM; in data set [5], 48600 nM; in data set [6], 18000 nM; in data set [7], 30400 nM. For the same compound, the “effect on viability of non-transformed cells” value in [8] is listed as “negligible effects”. For the same compound, in data set [9], the “effect on viability of healthy PBMCs” value is reported as “negligible effects”. Besides, the “acetylated α-tubulin levels” value in data set [10] (72 h after treatment) was “marked increase”. Further, the “impact on histone H4 acetylation” value in [11] is given as “moderate”.

Regarding `O=C(NO)c1ccc(CN2C(=O)[C@@H](Cc3ccccc3)N(Cc3cccnc3)C2=O)cc1`, the IC50 in data set [1] was 2.1 nM.

Turning to `Nc1n[nH]c(-c2cc(Cc3ccc(C(=O)NO)cc3)ccc2NC(=O)Cc2ccc3c(c2)OCO3)n1`, the IC50 in data set [1] (setting [12]) is 0.1 nM.

Regarding `O=C(NO)c1ccc(COC(=O)N2CCC3(CC2)CN(Cc2ccccc2)c2ccccc23)cc1`, the IC50 in data set [1] is 48.5 nM.

On to `O=C(CCCCCNC(=O)c1cn(Cc2ccc(NS(=O)(=O)c3ccc(Br)cc3)cc2)nn1)NO`, for which the IC50 in data set [1] was 8.4 nM.

As for `O=C(NO)c1ccc(CN(Cc2cccnc2)S(=O)(=O)c2cc(F)c(F)c(F)c2F)cc1`, in data set [1] (Table S1, ref PMID 33576627), the IC50 was 2.1 nM.

`CCCON(Cc1ccc(C(=O)NO)cc1)C(=O)Nc1cc(C)cc(C)c1`: the 50% inhibitory concentration (IC50) in data set [1] is 14 nM.

Consider `O=C(NO)c1ccc(CN2CC(=O)N(Cc3ccccc3)[C@H](Cc3ccccc3)C2=O)cc1`, for which, in data set [1], the IC50 is 9.83 nM.

For `C=CCC.CC[C@@H]1NC(=O)CN(Cc2ccc(C(=O)NO)cc2)C1=O`, in data set [1], the IC50 is 0.73 nM.

On to `O=C(Cc1cccc2ccccc12)C[C@@H](Cc1ccccc1)C(=O)NO`, for which the IC50 in [1] is 88 nM.

As for `NCc1ccc(NC(=O)N(CCCCO)Cc2ccc(C(=O)NO)cc2)cc1`, the IC50 in data set [1] (Table S1, ref PMID 32815366) was 0.4 nM.

Consider `O=C(NO)c1ccc(CNc2ncnc3[nH]ccc23)cc1` [ONC(=O)c1ccc(cc1)CNc2ncnc(c23)[nH]cc3], for which, in data set [1], the IC50 was 10 nM.

In the case of ACY-1215, the “acetylated α-tubulin levels” value in data set [10] (48 h after treatment) was “marked increase”.

`CN(C)c1ccc(C(=O)N2CCC(n3cc(C(=O)NCCCCCC(=O)NO)nn3)CC2)cc1`: the IC50 in data set [1] was 11.5 nM.

For `CC(C)Oc1ccc(-c2csc(NC(=O)c3ncn[nH]3)n2)cc1` [Compound 9], the IC50 in data set [3] is more than 25000 nM.

Turning to `Nc1nc2c3ccc(Cc4ccc(C(=O)NO)cc4)cc3nc(Cc3ccc4c(c3)OCO4)n2n1`, the IC50 in [1] (setting [12]) was 0.5 nM.
